These results are taken from patent US5385910A, “Gem-distributed esters of rapamycin” (American Home Products Corporation, priority 1993, dated 1995).

SMILES strings stand for the structures. Several values for one entry are separate records, joined by “and”; a condition that tells them apart may be missing. Equal values may be shown once. Where a name gives a salt, the structure may show the parent alone. Read-outs that look alike come from different tables or passages of the source.

Assay [1] concerns thymus cells of normal BALB/c mice (PHA and IL-1 induced lymphocyte proliferation). Nature of the assay: comitogen-induced thymocyte proliferation procedure (LAF). It counts as cell-based. To be noted: for IC50: read-out: LAF IC50. Here is the method:
Immunosuppressive activity for representative compounds of this invention was evaluated in an in vitro standard pharmacological test procedure to measure lymphocyte proliferation (LAF) and in three in vivo standard pharmacological test procedures. The pinch skin graft test procedure measures the immunosuppressive activity of the compound tested as well as the ability of the compound tested to inhibit or treat transplant rejection. The adjuvant arthritis standard pharmacological test procedure, which measures the ability of the compound tested to inhibit immune mediated inflammation. The adjuvant arthritis test procedure is a standard pharmacological test procedure for rheumatoid arthritis. Representative compounds of this invention were also evaluated in a heart allograft standard pharmacological test procedure which measures immunosuppressive activity of the compound tested as well as the ability of the compound tested to inhibit or treat transplant rejection. The procedures for these standard pharmacological test procedures are provided below.
The comitogen-induced thymocyte proliferation procedure (LAF) was used as an in vitro measure of the immunosuppressive effects of representative compounds. Briefly, cells from the thymus of normal BALB/c mice are cultured for 72 hours with PHA and IL-1 and pulsed with tritiated thymidine during the last six hours. Cells are cultured with and without various concentrations of rapamycin, cyclosporin A, or test compound. Cells are harvested and incorporated radioactivity is determined. Inhibition of lymphoproliferation is assessed as percent change in counts per minute from non-drug treated controls. For each compound evaluated, rapamycin was also evaluated for the purpose of comparison. An IC50 was obtained for each test compound as well as for rapamycin. […] The results obtained are provided as an IC50.

Assay [2] concerns pinch skin graft from male BALB/c donors transplanted to male C3 H(H-2K) recipients. Nature of the assay: pinch skin graft survival test procedure. It counts as in vivo, C3 H(H-2K) recipients (mice). To be noted: for Skin graft survival time (mean survival time ± S.D.): 4 mg/kg, intraperitoneally or orally, untreated grafts rejected within 6-7 days.
Procedure: Representative compounds of this invention were also evaluated in an in vivo test procedure designed to determine the survival time of pinch skin graft from male BALB/c donors transplanted to male C3 H(H-2K) recipients. […] Briefly, a pinch skin graft from the donor was grafted on the dorsum of the recipient as a allograft, and an isograft was used as control in the same region. The recipients were treated with either varying concentrations of test compounds intraperitoneally or orally. Rapamycin was used as a test control. Untreated recipients serve as rejection control. The graft was monitored daily and observations were recorded until the graft became dry and formed a blackened scab. This was considered as the rejection day. The mean graft survival time (number of days±S.D.) of the drug treatment group was compared with the control group. […] Results are expressed as the mean survival time in days. Untreated (control) pinch skin grafts are usually rejected within 6-7 days. Compounds were tested using a dose of 4 mg/kg.
A further assay relates to adjuvant arthritis. To be noted: model for rheumatoid arthritis; cited from earlier work.
A further assay has as its system IgE-like antibodies. To be noted: cited from earlier work.
Assay [3] relates to experimental allergic encephalomyelitis. To be noted: model for multiple sclerosis; cited from earlier work.
For another assay, the system named is Candida albicans. Conditions: in vitro and in vivo, particularly against Candida albicans; cited from earlier work.
[4] abbreviates: thymocytes cultured 72 hours with PHA and IL-1, tritiated thymidine last six hours.
Setting [5] is: thymocytes cultured 72 hours with PHA and IL-1, tritiated thymidine last six hours, hydrochloride salt.

One may read the IC50 as the concentration that inhibits the measured activity by half. Turning to `CO[C@H]1C[C@@H]2CC[C@@H](C)[C@@](O)(O2)C(=O)C(=O)N2CCCC[C@H]2C(=O)O[C@H]([C@H](C)C[C@@H]2CCC(=O)[C@H](OC)C2)CC(=O)[C@H](C)/C=C(\C)[C@@H](OC(=O)CN(C)C)[C@@H](OC)C(=O)[C@H](C)C[C@H](C)/C=C/C=C/C=C/1C` [Example 1, 42-Oxorapamycin-31-ester with 31-N,N-dimethylglycine], the IC50 in assay [1] (setting [4]) worked out at 9.7 nM. Further, in assay [2], the “Skin graft survival time (mean survival time ± S.D.)” value (“Skin graft survival time” for short) stood at 9.6 ± 0.9 days.

On to `CO[C@H]1C[C@@H]2CC[C@@H](C)[C@@](O)(O2)C(=O)C(=O)N2CCCC[C@H]2C(=O)O[C@H]([C@H](C)C[C@@H]2CCC(=O)[C@H](OC)C2)CC(=O)[C@H](C)/C=C(\C)[C@@H](OC(=O)CN(C)C)[C@@H](OC)C(=O)[C@H](C)C[C@H](C)/C=C/C=C/C=C/1C` [Example 2, 42-Oxorapamycin-31-ester with 31-N,N-dimethylglycine hydrochloride salt], for which the half-maximal inhibitory concentration (IC50) in assay [1] (setting [5]) is 23.4 nM. Besides, in assay [2] (hydrochloride salt), the “Skin graft survival time” value is 10.0 ± 0.0 days and 10.3 ± 0.5 days.

Turning to `CO[C@H]1C[C@@H]2CC[C@@H](C)[C@@](O)(O2)C(=O)C(=O)N2CCCC[C@H]2C(=O)O[C@H]([C@H](C)C[C@@H]2CCC(=O)[C@H](OC)C2)CC(=O)[C@H](C)/C=C(\C)[C@@H](OC(=O)CN(C)C)[C@@H](OC)C(=O)[C@H](C)C[C@H](C)/C=C/C=C/C=C/1C` [Example 3, 42-Oxorapamycin-31-ester with 31-N,N-dimethylglycine maleate salt], in assay [1] (thymocytes cultured 72 hours with PHA and IL-1, tritiated thymidine last six hours, maleate salt), the half-inhibitory concentration (IC50) is 14.4 nM. Besides, the “Skin graft survival time” value in assay [2] (maleate salt) is 9.2 ± 1.3 days.

Take `CO[C@H]1C[C@@H]2CC[C@@H](C)[C@@](O)(O2)C(=O)C(=O)N2CCCC[C@H]2C(=O)O[C@H]([C@H](C)C[C@@H]2CC[C@@H](OC(=O)C(C)(C)NC(=O)OCC3c4ccccc4-c4ccccc43)[C@H](OC)C2)CC(=O)[C@H](C)/C=C(\C)[C@@H](O)[C@@H](OC)C(=O)[C@H](C)C[C@H](C)/C=C/C=C/C=C/1C` [Example 4, Rapamycin 42-ester with 2-(9H-fluoren-9-ylmethoxycarbonylamino)-2-methylpropionic acid]: in assay [1], the “immunosuppressive activity in the LAF procedure (in words)” value is on record as “shown to have immunosuppressive activity”. In addition, the “Skin graft survival time” value in assay [2] was 11.7 ± 0.8 days and 14.2 ± 0.6 days. In addition, the “immunosuppressive activity in the skin graft procedure (in words)” value in assay [2] (mouse, in vivo) is “shown to have immunosuppressive activity”.

`CO[C@H]1C[C@@H]2CC[C@@H](C)[C@@](O)(O2)C(=O)C(=O)N2CCCC[C@H]2C(=O)O[C@H]([C@H](C)C[C@@H]2CC[C@@H](OC(=O)C(C)(C)N)[C@H](OC)C2)CC(=O)[C@H](C)/C=C(\C)[C@@H](O)[C@@H](OC)C(=O)[C@H](C)C[C@H](C)/C=C/C=C/C=C/1C` [Example 5, Rapamycin 42-ester with 2-amino-2-methylpropionic acid]: the “Skin graft survival time” value in assay [2] was 12.3 ± 1.0 days and 11.8 ± 1.3 days.

In the case of `CO[C@H]1C[C@@H]2CC[C@@H](C)[C@@](O)(O2)C(=O)C(=O)N2CCCC[C@H]2C(=O)O[C@H]([C@H](C)C[C@@H]2CC[C@@H](OC(=O)C(C)(C)N)[C@H](OC)C2)CC(=O)[C@H](C)/C=C(\C)[C@@H](O)[C@@H](OC)C(=O)[C@H](C)C[C@H](C)/C=C/C=C/C=C/1C` [Example 7, Rapamycin 42-ester with 2-amino-2,-methylpropionic acid hydrochloride salt], the IC50 in assay [1] (setting [5]) turned out to be 3.9 nM. Also, the “Skin graft survival time” value in assay [2] (hydrochloride salt) worked out at 10.2 ± 1.2 days.

Regarding `CO[C@H]1C[C@@H]2CC[C@@H](C)[C@@](O)(O2)C(=O)C(=O)N2CCCC[C@H]2C(=O)O[C@H]([C@H](C)C[C@@H]2CC[C@@H](OC(=O)C3(N)CCCC3)[C@H](OC)C2)CC(=O)[C@H](C)/C=C(\C)[C@@H](O)[C@@H](OC)C(=O)[C@H](C)C[C@H](C)/C=C/C=C/C=C/1C` [Example 10, Rapamycin 42-ester with 1-aminocyclopentane carboxylic acid], the 50% inhibitory concentration (IC50) in assay [1] (setting [4]) is 6 nM. The “Skin graft survival time” value in assay [2] was 10.5 ± 0.6 days and 10.2 ± 1.0 days.

With `CO[C@H]1C[C@@H]2CC[C@@H](C)[C@@](O)(O2)C(=O)C(=O)N2CCCC[C@H]2C(=O)O[C@H]([C@H](C)C[C@@H]2CC[C@@H](OC(=O)C3(N)CCCC3)[C@H](OC)C2)CC(=O)[C@H](C)/C=C(\C)[C@@H](O)[C@@H](OC)C(=O)[C@H](C)C[C@H](C)/C=C/C=C/C=C/1C` [Example 11, Rapamycin 42-ester with 1-aminocyclopentane carboxylic acid hydrochloride salt], the half-maximal inhibitory concentration (IC50) in assay [1] (setting [5]) is 0.63 nM. Besides, in assay [2] (hydrochloride salt), the “Skin graft survival time” value was 10.3 ± 0.5 days and 11.5 ± 0.8 days and 12.3 ± 1.0 days.

With `CO[C@H]1C[C@@H]2CC[C@@H](C)[C@@](O)(O2)C(=O)C(=O)N2CCCC[C@H]2C(=O)O[C@H]([C@H](C)C[C@@H]2CC[C@@H](OC(=O)C3(N)CCCCC3)[C@H](OC)C2)CC(=O)[C@H](C)/C=C(\C)[C@@H](O)[C@@H](OC)C(=O)[C@H](C)C[C@H](C)/C=C/C=C/C=C/1C` [Example 14, Rapamycin 42-ester with 1-aminocyclohexane carboxylic acid], the “Skin graft survival time” value in assay [2] is 10.6 ± 0.5 days and 12.4 ± 1.1 days.

As for `CO[C@H]1C[C@@H]2CC[C@@H](C)[C@@](O)(O2)C(=O)C(=O)N2CCCC[C@H]2C(=O)O[C@H]([C@H](C)C[C@@H]2CC[C@@H](OC(=O)C3(N)CCCCC3)[C@H](OC)C2)CC(=O)[C@H](C)/C=C(\C)[C@@H](O)[C@@H](OC)C(=O)[C@H](C)C[C@H](C)/C=C/C=C/C=C/1C` [Example 15, Rapamycin 42-ester with 1-aminocyclohexane carboxylic acid hydrochloride salt], the half-inhibitory concentration (IC50) in assay [1] (setting [5]) was 0.7 nM and 0.4 nM. Further, in assay [2] (hydrochloride salt), the “Skin graft survival time” value is 11.5 ± 1.2 days and 11.2 ± 0.8 days.

In the case of `CO[C@H]1C[C@@H]2CC[C@@H](C)[C@@](O)(O2)C(=O)C(=O)N2CCCC[C@H]2C(=O)O[C@H]([C@H](C)C[C@@H]2CC[C@@H](O)[C@H](OC)C2)CC(=O)[C@H](C)/C=C(\C)[C@@H](O)[C@@H](OC)C(=O)[C@H](C)C[C@H](C)/C=C/C=C/C=C/1C` [rapamycin], the “effect in the adjuvant arthritis model (in words)” value in the assay with adjuvant arthritis was “effective”. In addition, in assay [1] (Mus musculus, Lymphocyte), the IC50 fell in the range of 0.4 to 6.8 nM. For the same molecule, in the assay on IgE-like antibodies, the “formation of IgE-like antibodies (in words)” value is listed as “effectively inhibited”. For the same molecule, the “effect in the experimental allergic encephalomyelitis model (in words)” value in assay [3] is “effective”. In addition, the “antifungal activity (in words)” value in the assay with Candida albicans is on record as “antifungal activity”.
